Legend:
Type in all cases: in vivo, mouse
[1] = system: naturally aged C57BL6J mice; test: Joint aging (arthritis marker mRNA) in naturally aged mice, Example 21-12, Table 27
Experimental: (§1) 22-month-old female C57BL6J mice (KRIBB Laboratory Animal Resource Center) were acclimated to the experimental environment for one week, after which the aged mice were randomly assigned to experimental and control groups. Eight-week-old, non-aged mice served as controls. LX-403 was mixed in a 10% ethanol solution of PEG400 and administered orally at a concentration of 25 mg/kg daily for 21 days, or administered to the skin, joints, or eyes at a concentration of 1 μM. LX-1801 was mixed in distilled water with 4% DMSO, 30% PEG300, and 5% Tween80 and administered to the skin, joints, or eyes at a concentration of 0.4 μM daily for 21 days. LX-2001 was mixed in PBS and administered to the skin, joints, or eyes at a concentration of […] daily for 21 days. LX-2002 was mixed in distilled water with 4% DMSO, 30% PEG300, and 5% Tween80 and administered to the skin, joints, or eyes at a concentration of 2 μM daily for 21 days. […] LX-2005 was mixed in distilled water with 4% DMSO, 30% PEG300, and 5% Tween80 and administered to the skin, joints, or eyes at a concentration of 90 μM daily for 21 days. LX-2007 was mixed in distilled water with 4% DMSO, 30% PEG300, and 5% Tween80 and administered to the skin, joints, or eyes at a concentration of 90 μM daily for 21 days. […] LX-3002 was mixed in distilled water with 4% DMSO, 30% PEG300, and 5% Tween80 and administered orally at a concentration of 10 mg/kg daily for 21 days. […] LX-5411 was mixed in 5% PBS and administered orally at a concentration of 10 mg/kg daily for 21 days or administered to the skin, joints, or eyes at a concentration of 3 μM. LX-5701 was mixed in PBS and administered orally at a concentration of 360 mg/kg daily for 21 days. LX-6807 was mixed in saline and administered intraperitoneally at a concentration of 1 mg/kg daily for 21 days. LX-2101 or LX-2102 was mixed in PBS solution with 5% DMSO and administered intraperitoneally at a concentration of 20 mg/kg or 10 mg/kg, respectively, daily for 21 days. The control group received only the solution in the same volume. After the end of drug administration, the methods described in each example below were performed.
RNA was extracted from joint tissue as described in Example 7-2 of WO2023-085787 A1, and qRT-PCR was performed using the synthesized cDNA. […] To analyze joint pain due to joint aging, hotplate analysis was performed. Specifically, thermal pain thresholds were measured using a hot plate. After acclimating mice to a temperature of 30° C. for 10 minutes, the time required for hind paw licking or jumping responses to occur at 55° C. was measured. To prevent tissue damage, the response was measured for less than 30 seconds, and the average value was used from five measurements.

[2] = system: obesity-induced aged C57BL6J mice; test: Anxiety, depression, lethargy (open field test) in obesity-aged mice, Example 23-4, Table 44; settings: for geriatric depression: obesity-aged mice; for Open Field Test Time in Center: obesity-induced aged mice, daily for 21 days, activity after obesity-induced aging calculated as 100%
Outline: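 Male C57BL6J mice were made obese on a high-fat diet from 15 weeks of age. Compounds were given daily for 21 days: LX-3002 10 mg/kg orally, LX-5701 360 mg/kg orally, LX-6807 1 mg/kg intraperitoneally, with vehicle-treated controls. Open-field activity was then expressed relative to obese untreated mice set at 100%.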

[3] = system: naturally aged mice; test: Open field test in naturally aged mice, Example 15; settings: untreated aged = 100%; 5 days; doses as p16 mRNA
Experimental: In the same manner as in Example 7-1 of WO2023-085787 A1, naturally aged mice were administered LX-405 (5% DMSO in PBS solution, 10 mg/kg, intraperitoneal administration), LX-801 (PBS, 100 mg/kg, intraperitoneal administration), LX-1102 (0.5% CMC-Na solution, 100 mg/kg, oral administration), LX-1801 (PBS, 50 mg/kg, intraperitoneal administration), LX-2101 (0.5% CMC-Na solution, 10 mg/kg, intraperitoneal administration), and LX-3403 (mouse anti-PD-1 antibody (BioXcell), 100 μg, intraperitoneal administration) for 5 days under the following conditions. The control group was administered only the solution in the same volume. After drug administration was completed, the method described in each Example below was performed. The mouse was sacrificed in the same manner as Example 7-2 and 7-6 of WO2023-085787 A1. Total RNA was extracted from liver tissue, and qRT-PCR was performed and analyzed using synthesized cDNA. […] The mRNA amounts of p16, MMP3, and IL6 after natural aging were induced were calculated as 100% and compared them with the mRNA amounts of p16, MMP3, and IL6 after treatment with the test compound. Furthermore, an open field test was performed to analyze aging-related frailty in mice using the same method as Example 7-7 of WO2023-085787 A1. […] The amount of activity evaluated after inducing aging was calculated as 100% and compared it with the amount of activity evaluated after treatment with the test compound.

[4] = system: naturally aged C57BL6J mice; test: Frailty (open field, wire hanging, grip strength, muscle and fat tissue) in naturally aged mice, Example 21-7, Table 23; settings: for Fat Mass (g): inguinal and epididymal fat, untreated aged 0.82 (±0.19); for Muscle Mass (g): quadriceps and gastrocnemius, untreated aged 0.64 (±0.06); for Grip Sterenght Test Strength (%) / Open Field Test Time in Center (%) / Wire Hanging Test Time (%): untreated aged = 100%
Experimental: as §1
To analyze frailty due to aging in mice, an activity test (open field test), an endurance test (wire hanging test), and a muscle strength and grip strength test (grip strength test) were performed using the same method as in Example 7-7 of WO2023-085787 A1. The table below quantitatively represents the results of activity, endurance, muscle strength, and grip strength, which are criteria for assessing frailty, under conditions in which aging was induced and the test compound was not administered or administered. The amount of each evaluation after aging was calculated as 100% and compared with the amount of each evaluation after treatment with the drug of the present invention.

| Molecule | Col2a1 mRNA (fold) [1] | geriatric depression [2] | Open Field Test Time in Center [3] | Fat Mass (g) [4] | Muscle Mass (g) [4] | Grip Sterenght Test Strength (%) [4] | Open Field Test Time in Center (%) [4] | Wire Hanging Test Time (%) [4] | Open Field Test Time in Center [2] |
| --- | --- | --- | --- | --- | --- | --- | --- | --- | --- |
| O=C(C(C[N+](=O)[O-])=NO)N1CCN(C(c2ccc(Cl)cc2)c2ccc(Cl)cc2)CC1 [LX-403] | 2.9 (±0.2) fold | – | – | – | – | – | – | – | – |
| COC(=O)c1ccc([C@H]2c3[nH]c4ccccc4c3C[C@H](C(=O)OC)N2C(=O)CCl)cc1 [LX-405] | – | similarly improving geriatric depression | 201.5 (±18.3) % | – | – | – | – | – | – |
| S=C(N/N=C1\CCCc2cccnc21)N1CCN(c2ccccn2)CC1 [LX-801] | – | – | 241.8 (±17.9) % | – | – | – | – | – | – |
| C[C@@H]1CC[C@@]23C[C@H](O)C(=O)[C@@]2(O)[C@]1(C)[C@H](OC(=O)CCl)C[C@@H](C1=CCn2c(=O)n(-c4ccccc4)c(=O)n2C1)[C@@H]3C [LX-1801, (2S,3aS,4S,5R,7R,8S,8aS,11R)-7-(1,3-Dioxo-2-phenyl-2,3,5,8-tetrahydro-1H-[1,2,4]triazolo[1,2-a]pyridazin-6-yl)-2,3a-dihydroxy-4,8,11-trimethyl-3-oxooctahydro-1H-4,8a-propanoazulen-5-yl 2-Chloroacetate] | 2.6 (±0.2) fold | – | 252.9 (±28) % | – | – | – | – | – | – |
| C[C@H]1[C@H](C)CC[C@]2(C(=O)O)CC[C@]3(C)C(=CC[C@@H]4[C@@]5(C)CC[C@H](O)C(C)(C)[C@@H]5CC[C@]43C)[C@H]12 [LX-2001, Ursolic acid] | 1.8 (±0.2) fold | – | – | – | – | – | – | – | – |
| C[C@H]1[C@H](C)CC[C@]2(C(=O)O)CC[C@]3(C)C(=CC[C@@H]4[C@@]5(C)C[C@@H](O)[C@H](O)C(C)(C)[C@@H]5CC[C@]43C)[C@H]12 [LX-2002, Corosolic acid] | 1.7 (±0.3) fold | – | – | – | – | – | – | – | – |
| CC1(C)CC[C@]2(C(=O)O)CC[C@]3(C)C(=CC[C@@H]4[C@@]5(C)CC[C@H](O)C(C)(C)[C@@H]5CC[C@]43C)[C@@H]2C1 [LX-2003, Oleanolic acid] | 1.9 (±0.2) fold | – | – | – | – | – | – | – | – |
| C=C(C)[C@@H]1CC[C@]2(C(=O)O)CC[C@]3(C)[C@H](CC[C@@H]4[C@@]5(C)CC[C@H](O)C(C)(C)[C@@H]5CC[C@]43C)[C@@H]12 [LX-2005, Betulinic acid] | 2.2 (±0.1) fold | – | – | – | – | – | – | – | – |
| CC1(C)C=C2[C@H]3CC[C@@H]4[C@@]5(C)CCC(=O)C(C)(C)[C@@H]5CC[C@@]4(C)[C@]3(C)CC[C@@]2(C(=O)O)CC1 [LX-2007, Moronic acid] | 1.6 (±0.2) fold | – | – | – | – | – | – | – | – |
| CC1(C)CC[C@]2(NC(=O)C(C)(F)F)CC[C@]3(C)[C@H](C(=O)C=C4[C@@]5(C)C=C(C#N)C(=O)C(C)(C)[C@@H]5CC[C@]43C)[C@@H]2C1 [LX-2101, Omaveloxolone] | 1.9 (±0.2) fold | similarly improving geriatric depression | 215.3 (±30.8) % | 1.15 (±0.09) g | 0.72 (±0.05) g | 121 (±4.1) % | 145 (±10.2) % | 117 (±3.8) % | – |
| COC(=O)[C@]12CCC(C)(C)C[C@H]1[C@H]1C(=O)C=C3[C@@]4(C)C=C(C#N)C(=O)C(C)(C)[C@@H]4CC[C@@]3(C)[C@]1(C)CC2 [LX-2102, Bardoxolone methyl] | – | – | – | 0.97 (±0.16) g | 0.76 (±0.05) g | 116 (±9.2) % | 109 (±8.6) % | 120 (±7.5) % | – |
| CCCC\C=C/C=C/C=C\CCCCCCCC(=O)O [LX-2707, Punicic acid] | – | similarly improving geriatric depression | – | 0.98 (±0.20) g | 0.67 (±0.07) g | 117 (±3.6) % | 198 (±19.4) % | 135 (±13.3) % | 224 (±12.8) % |
| COC(=O)[C@H]1Cc2c([nH]c3ccccc23)[C@H](c2ccc(S(C)(=O)=O)cc2)N1C(=O)CCl [LX-5401, methyl (1S,3R)-2-(2-chloroacetyl)-1-(4-(methylsulfonyl)phenyl)-2,3,4,9-tetrahydro-1H-pyrido[3,4-b]indole-3-carboxylate] | – | similarly improving geriatric depression | – | – | – | – | – | – | – |
| C#CC(=O)N1[C@@H](CCCC)Cc2cc(OC)ccc2[C@@H]1c1ccc(NC23CC4CC(CC(C4)C2)C3)cc1 [LX-5411] | 3.3 (±0.3) fold | similarly improving geriatric depression | – | – | – | – | – | – | – |
| O=C1C2CCN(CC2)C1CNC(=O)C(F)(F)F (stereo not shown) [LX-5701] | 2.7 (±0.3) fold | – | – | 0.88 (±0.1) g | 0.66 (±0.1) g | 119 (±3.8) % | 259 (±38.6) % | 141 (±7.3) % | 217 (±20.1) % |
| Cc1cccc([C@H](C)c2cnc[nH]2)c1C [LX-6807, Dexmedetomidine] | 3.5 (±0.2) fold | similarly improving geriatric depression | – | 1.08 (±0.15) g | 0.74 (±0.04) g | 128 (±6.2) % | 269 (±13.3) % | 156 (±16.4) % | 202 (±18.2) % |
| Tocofersolan [LX-3001] | – | – | – | 0.95 (±0.12) g | 0.70 (±0.1) g | 115 (±4.7) % | 187 (±12.9) % | 126 (±11.4) % | 168 (±11.9) % |
